Measurements from the NIST ThermoML archive (doi:10.1016/j.jct.2004.12.002).
Numbers after ± are expanded uncertainties.

Legend:
[1] = xn = mol fraction of the nth substance listed; conditions: 101 kPa, Liquid
[2] = 101 kPa, Liquid

CCO [ethanol] + CCCCCCC
[1], x1 = 1
Conditions	mass density [kg/m3]
293.22 K	789.54 ± 0.47
298.16 K	785.46 ± 0.47
303.17 K	781.05 ± 0.48
308.17 K	776.75 ± 0.49
313.17 K	772.42 ± 0.49
318.18 K	768 ± 0.5

CCCCCCC [heptane] + CCO
mass density [kg/m3], [1]
Conditions	293.21 K	293.22 K	298.16 K	298.17 K	303.17 K	308.17 K	313.17 K	318.17 K	318.18 K
x2 = 0	–	683.82 ± 0.65	679.75 ± 0.65	–	675.51 ± 0.66	671.21 ± 0.67	666.97 ± 0.67	–	662.67 ± 0.68
x2 = 0.0237	–	684.36 ± 0.65	–	680.19 ± 0.65	675.81 ± 0.66	671.53 ± 0.66	667.19 ± 0.67	663.59 ± 0.68	–
x2 = 0.0507	–	685.26 ± 0.64	–	681.04 ± 0.65	676.65 ± 0.66	672.35 ± 0.66	667.92 ± 0.67	–	662.82 ± 0.68
x2 = 0.1041	–	687.27 ± 0.64	–	683.06 ± 0.65	678.74 ± 0.65	674.32 ± 0.66	669.78 ± 0.67	665.46 ± 0.67	–
x2 = 0.2043	691.74 ± 0.63	–	–	687.5 ± 0.64	683.12 ± 0.64	678.62 ± 0.65	674.12 ± 0.66	669.66 ± 0.66	–
x2 = 0.3044	697.14 ± 0.62	–	–	692.93 ± 0.63	688.45 ± 0.63	683.9 ± 0.64	679.46 ± 0.65	674.88 ± 0.65	–
x2 = 0.3971	703.04 ± 0.61	–	–	698.76 ± 0.62	694.32 ± 0.62	689.82 ± 0.63	685.29 ± 0.64	680.74 ± 0.64	–
x2 = 0.4975	710.62 ± 0.6	–	–	706.35 ± 0.6	701.88 ± 0.61	697.41 ± 0.62	692.92 ± 0.62	688.34 ± 0.63	–
x2 = 0.6043	–	720.54 ± 0.58	–	716.27 ± 0.59	711.77 ± 0.59	707.35 ± 0.6	702.8 ± 0.61	698.25 ± 0.61	–
x2 = 0.6954	730.78 ± 0.57	–	–	726.58 ± 0.57	722.09 ± 0.58	717.65 ± 0.58	713.21 ± 0.59	708.71 ± 0.59	–
x2 = 0.8023	745.94 ± 0.54	–	–	741.81 ± 0.54	737.39 ± 0.55	733.18 ± 0.56	728.57 ± 0.57	724.14 ± 0.57	–
x2 = 0.9009	764.36 ± 0.51	–	–	760.18 ± 0.51	755.87 ± 0.52	751.57 ± 0.53	747.21 ± 0.53	742.91 ± 0.54	–
x2 = 0.9531	–	776.53 ± 0.49	–	772.37 ± 0.49	768.14 ± 0.5	763.83 ± 0.51	759.41 ± 0.51	–	754.95 ± 0.52

CCCCCCC [heptane]
[2]
Conditions	mass density [kg/m3]
293.22 K	683.82 ± 0.65
298.16 K	679.75 ± 0.65
303.17 K	675.51 ± 0.66
308.17 K	671.21 ± 0.67
313.17 K	666.97 ± 0.67
318.18 K	662.67 ± 0.68

CCO [ethanol]
[2]
Conditions	mass density [kg/m3]
293.22 K	789.54 ± 0.47
298.16 K	785.46 ± 0.47
303.17 K	781.05 ± 0.48
308.17 K	776.75 ± 0.49
313.17 K	772.42 ± 0.49
318.18 K	768 ± 0.5
